According to patent US4565823A, “Medical agent for suppressing arteriosclerosis” (Yamanouchi Pharmaceutical Co., Ltd., priority 1982, dated 1986):
Structures can show the parent of a compound that is named as a salt.

Tests used:
[1] = tested on: cholesterol levels in the serum; experiment: Effect on cholesterol levels in the serum (normal rats); format: in vivo; conditions: oral
[2] = tested on: cholesterol levels in the serum; experiment: Effect on cholesterol levels in the serum (hypercholesterolemia rats); format: in vivo, Male Sprague-Dawley rats; conditions: for HDL chol. / HDL chol. / LDL + VLDL chol. / LDL + VLDL chol. / T. chol. (total cholesterol): oral; for effect on HDL cholesterol (words) / effect on total cholesterol in the serum (words): rat, in vivo
Procedure: Male Sprague-Dawley rats (JCL®, Nippon Clea Co. Ltd., Tokyo, Japan) weighing 90-100 g were fed semipurified diet containing 10% coconut oil, 1.5% cholesterol and 0.5% cholic acid. Three days after the start of feeding, the rats are allocated at random by the body weight to multiple groups each consisting 6-8 rats. On day 4 through 7, the drug suspension in 0.5% methylcellulose was orally given daily. […] Following the final dose, the rats were fasted overnight (approximately 16 hours). […] Serum was obtained by centrifugation at 1,600 xg for 15 min and stored at 4° C. in plastic tubes. The amount of total cholesterol and HDL cholesterol in the serum were determined. The determination of the total cholesterol was practiced by the method described in Schettler, G & Nussel; "Arbeitsmed. Sozialmed. Praventivmed." 10, 25 (1975) and the determination of HDL cholesterol was practiced by the method described in T. T. Ishikawa et al; "Lipids", 11, 628 (1976).

[3] = acute toxicity, mice (ICR); conditions: mouse, in vivo
Text: (§1) Nicardipine hydrochloride is a low toxicity compound, and this fact is confirmed by acute toxicity examination experiment.

[4] = acute toxicity, rats (Wister); conditions: rat, in vivo
Text: as §1

[5] = acute toxicity, rats (S.D.); conditions: rat, in vivo
Text: as §1

[6] = acute toxicity, dog (mongrel); format: in vivo; conditions: in vivo, iv, only a range in parentheses printed
Text: as §1

dog (mongrel) = experiment: acute toxicity, dog (mongrel); format: in vivo; conditions: p.o.
Text: as §1

mice, rats, dog = experiment: acute toxicity examination (overall statement); conditions: in vivo
Text: as §1

[7] = tested on: aortic smooth muscle cell; experiment: 12-HETE-associated aortic smooth muscle cell migration, filter membrane technique in modified Boyden chambers; format: cell-based; conditions: 6×10^-15 g/ml 12-HETE, 37° C.
Text: The effect of nicardipine on 12-HETE-associated aortic smooth muscle cell migration can be examined by measuring the migration of aortic smooth muscle cell by filter membrane technique in modified Boyden chambers as follows:
5×10^5 of the smooth muscle cells were suspended in Ca^2+ -containing culture medium supplemented with 5% calf serum containing various concentration of nicardipine. Control cultures contained the same volume, a final concentration of 1% (v/v), of […]. The suspensions of the smooth muscle cells were placed in the upper compartment of the chamber. The lower compartment of the chamber contained the same culture medium supplemented with 6×10^-15 g/ml of 12-HETE and 5% calf serum containing no nicardipine. The cells was incubated at 37° C. As control, medium with the same concentration of solvent (1% ethanol) containing no 12-HETE was used. Smooth muscle cell migration was quantitated microscopically by counting the number of cells that migrated into the filter. In each experiment, 10 high-power fields in 5 replicate cultures were examined to determine the number of cells that had migrated into the filers. Cell migration was expressed as cells/10 HPF (high-power fields) in FIG. 1.

[8] = hypercholesterolemia rats, 50 mg/kg
[9] = hypercholesterolemia rats, 100 mg/kg
[10] = hypercholesterolemia rats, 200 mg/kg
[11] = hypercholesterolemia rats, 10 mg/kg
[12] = hypercholesterolemia rats, 30 mg/kg
[13] = listed as nicardipine hydrochloride

CCOC(=O)C(C)(C)Oc1ccc(Cl)cc1 [clofibrate]
HDL chol. ([1]; 50 mg/kg): 26.5 ± 2.5 mg/dL | HDL chol. / LDL + VLDL chol. ([1]; 50 mg/kg): 1.828 | LDL + VLDL chol. ([1]; 50 mg/kg): 14.5 ± 1.0 mg/dL | T. chol. (total cholesterol) ([1]; 50 mg/kg): 42.7 ± 2.3 mg/dL | HDL chol. ([1]; 100 mg/kg): 30.3 ± 3.1 mg/dL | HDL chol. / LDL + VLDL chol. ([1]; 100 mg/kg): 3.258 | LDL + VLDL chol. ([1]; 100 mg/kg): 9.3 ± 1.5 mg/dL | T. chol. (total cholesterol) ([1]; 100 mg/kg): 39.7 ± 2.7 mg/dL | HDL chol. ([1]; 200 mg/kg): 22.8 ± 2.7 mg/dL | HDL chol. / LDL + VLDL chol. ([1]; 200 mg/kg): 1.664 | LDL + VLDL chol. ([1]; 200 mg/kg): 13.7 ± 2.1 mg/dL | T. chol. (total cholesterol) ([1]; 200 mg/kg): 36.5 ± 4.4 mg/dL | HDL chol. [2, 8]: 13.8 ± 1.0 mg/dL | HDL chol. / LDL + VLDL chol. [2, 8]: 0.036 | LDL + VLDL chol. [2, 8]: 379.6 ± 92.6 mg/dL | T. chol. (total cholesterol) [2, 8]: 412.0 ± 77.8 mg/dL | HDL chol. [2, 9]: 21.0 ± 2.5 mg/dL | HDL chol. / LDL + VLDL chol. [2, 9]: 0.100 | LDL + VLDL chol. [2, 9]: 210.4 ± 55.8 mg/dL | T. chol. (total cholesterol) [2, 9]: 231.0 ± 54.2 mg/dL | HDL chol. [2, 10]: 19.3 ± 2.8 mg/dL | HDL chol. / LDL + VLDL chol. [2, 10]: 0.065 | LDL + VLDL chol. [2, 10]: 298.0 ± 66.2 mg/dL | T. chol. (total cholesterol) [2, 10]: 317.4 ± 64.4 mg/dL

COc1ccc(Cc2nccc3cc(OC)c(OC)cc23)cc1OC [papaverine]
LD50 ([3]; iv, mice (ICR) male): 27 mg/kg | LD50 ([4]; iv, rats (Wister) male): 13.3 mg/kg

COC(=O)C1=C(C)NC(C)=C(C(=O)OCCN(C)Cc2ccccc2)C1c1cccc([N+](=O)[O-])c1 (centres unmarked) [Nicardipine hydrochloride]
HDL chol. ([1]; 10 mg/kg): 29.6 ± 1.4 mg/dL | HDL chol. / LDL + VLDL chol. ([1]; 10 mg/kg): 3.020 | LDL + VLDL chol. ([1]; 10 mg/kg): 9.8 ± 1.9 mg/dL | T. chol. (total cholesterol) ([1]; 10 mg/kg): 39.4 ± 2.0 mg/dL | HDL chol. ([1]; 30 mg/kg): 37.2 ± 2.7 mg/dL | HDL chol. / LDL + VLDL chol. ([1]; 30 mg/kg): 10.941 | LDL + VLDL chol. ([1]; 30 mg/kg): 3.4 ± 1.6 mg/dL | T. chol. (total cholesterol) ([1]; 30 mg/kg): 41.3 ± 4.7 mg/dL | HDL chol. ([1]; 100 mg/kg): 39.8 ± 4.3 mg/dL | HDL chol. / LDL + VLDL chol. ([1]; 100 mg/kg): 14.214 | LDL + VLDL chol. ([1]; 100 mg/kg): 2.8 ± 1.2 mg/dL | T. chol. (total cholesterol) ([1]; 100 mg/kg): 40.8 ± 5.9 mg/dL | effect on LDL chol ([2]; hypercholesterolemia rats): reduces remarkably LDL chol | HDL chol. [2, 11]: 27.0 ± 1.8 mg/dL | HDL chol. / LDL + VLDL chol. [2, 11]: 0.090 | LDL + VLDL chol. [2, 11]: 299.4 ± 52.8 mg/dL | T. chol. (total cholesterol) [2, 11]: 326.4 ± 52.0 mg/dL | HDL chol. [2, 12]: 28.0 ± 0.5 mg/dL | HDL chol. / LDL + VLDL chol. [2, 12]: 0.067 | LDL + VLDL chol. [2, 12]: 420.6 ± 53.2 mg/dL | T. chol. (total cholesterol) [2, 12]: 448.6 ± 52.8 mg/dL | HDL chol. [2, 9]: 47.0 ± 1.8 mg/dL | HDL chol. / LDL + VLDL chol. [2, 9]: 0.250 | LDL + VLDL chol. [2, 9]: 188.0 ± 26.4 mg/dL | T. chol. (total cholesterol) [2, 9]: 246.0 ± 24.6 mg/dL | effect on HDL cholesterol (words) [2, 13]: increases selectively HDL chol | effect on total cholesterol in the serum (words) [2, 13]: reduce the amount of total cholesterol in the serum | LD50 ([3]; iv, mice (ICR) female): 19.9 mg/kg | LD50 ([3]; po, mice (ICR) female): 650 mg/kg | LD50 ([3]; po, mice (ICR) male): 634 mg/kg | LD50 ([3]; sc, mice (ICR) female): 710 mg/kg | LD50 ([3]; sc, mice (ICR) male): 540 mg/kg | LD50 ([4]; iv, rats (Wister) female): 17.2 mg/kg | LD50 ([4]; iv, rats (Wister) male): 15.5 mg/kg | LD50 ([4]; po, rats (Wister) female): 184 mg/kg | LD50 ([4]; po, rats (Wister) male): 187 mg/kg | LD50 ([4]; sc, rats (Wister) female): 606 mg/kg | LD50 ([4]; sc, rats (Wister) male): 677 mg/kg | LD50 ([5]; iv, rats (S.D.) female): 25 mg/kg | LD50 ([5]; iv, rats (S.D.) male): 18.1 mg/kg | LD50 ([5]; po, rats (S.D.) female): 557 mg/kg | LD50 ([5]; po, rats (S.D.) male): 643 mg/kg | LD50 [6]: 5 to 8.1 mg/kg | MLD (dog (mongrel)): > 60 mg/kg | acute toxicity (mice, rats, dog): low toxicity

COC(=O)C1=C(C)NC(C)=C(C(=O)OCCN(C)Cc2ccccc2)C1c1cccc([N+](=O)[O-])c1 (centres unmarked) [nicardipine]
effect on HDL cholesterol (words) [2]: elevating high density lipoprotein (HDL) selectivity | effect on total cholesterol in the serum (words) [2]: reducing cholesterol level increased in the serum | inhibition of 12-HETE-associated aortic smooth muscle cell migration [7]: inhibits 12-HETE-associated aortic smooth muscle cell migration (aortic smooth muscle cell migration induced by 12-L-hydroxy-5,8,10,14-eicosotetraenoic acid) significantly
